Experimental data published in patent US11173162B2, “Bicyclic heterocycles as FGFR4 inhibitors” (Incyte Corporation, priority 2015, dated 2021).

System: FGFR3 enzyme
Assay: FGFR Enzymatic Assay (FRET peptide phosphorylation), FGFR3
Format: biochemical
Conditions: IC50 ratio showing FGFR3 selectivity; Table 2A, pre-incubated for 4 hours
Method: The inhibitor potency of the exemplified compounds was measured in an enzyme assay that measures peptide phosphorylation using FRET measurements to detect product formation. Inhibitors were serially diluted in DMSO and a volume of 0.5 μL was transferred to the wells of a 384-well plate.
GraphPad prism3 was used to analyze the data.

Row | FGFR1/FGFR3 | FGFR4/FGFR3 | SMILES
1 | >3 | >5 | COc1cc(OC)c(F)c(N2Cc3cnc(-c4cn(C)nc4C)cc3N(c3ncccn3)C2=O)c1F [Example 105, 3-(2,6-difluoro-3,5-dimethoxyphenyl)-7-(1,3-dimethyl-1H-pyrazol-4-yl)-1-(pyrimidin-2-yl)-3,4-dihydropyrido[4,3-d]pyrimidin-2(1H)-one]
2 | >10 | >10 | COc1cc(OC)c(F)c(N2Cc3cnc(-c4cn(C)nc4C)cc3N(c3ccc(C#N)cc3)C2=O)c1F [Example 44, 4-(3-(2,6-difluoro-3,5-dimethoxyphenyl)-7-(1,3-dimethyl-1H-pyrazol-4-yl)-2-oxo-3,4-dihydropyrido[4,3-d]pyrimidin-1 (2H)-yl)benzonitrile]
3 | >5 | >5 | CCN1C(=O)N(c2c(F)c(OC)cc(OC)c2F)Cc2cnc(-c3ccc(C(=O)NC(C)C)nc3)cc21 [Example 178, 5-(3-(2,6-difluoro-3,5-dimethoxyphenyl)-1-ethyl-2-oxo-1,2,3,4-tetrahydropyrido[4,3-d]pyrimidin-7-yl)-N-isopropylpicolinamide]
4 | >5 |  | COc1cc(OC)c(F)c(N2Cc3cnc(-c4cn(C)nc4C)cc3C3(CC3)C2=O)c1F [Example 21, 2′-(2,6-difluoro-3,5-dimethoxyphenyl)-6′-(1,3-dimethyl-1H-pyrazol-4-yl)-1′,2′-dihydro-3′H-spiro[cyclopropane-1,4′-[2,7]naphthyridin]-3′-one]
5 | >5 | >1 | COc1cc(OC)c(F)c(N2Cc3cnc(-c4cnn(C5(CC#N)CN(C(C)=O)C5)c4)cc3C3(CC3)C2=O)c1F [Example 56, 2-(1-acetyl-3-(4-(2′-(2,6-difluoro-3,5-dimethoxyphenyl)-3′-oxo-2′,3′-dihydro-1′H-spiro[cyclopropane-1,4′-[2,7]naphthyridine]-6′-yl)-1H-pyrazol-1-yl)azetidin-3-yl)acetonitrile]
6 | >5 | >1 | CCN1C(=O)N(c2c(F)c(OC)cc(OC)c2F)Cc2cnc(-c3cn(CCN4CCOCC4)nc3C)cc21 [Example 49, 3-(2,6-difluoro-3,5-dimethoxyphenyl)-1-ethyl-7-(3-methyl-1-(2-morpholinoethyl)-1H-pyrazol-4-yl)-3,4-dihydropyrido[4,3-d]pyrimidin-2(1H)-one]
7 | >10 | >10 | COc1cc(CN2C(=O)N(c3c(F)c(OC)cc(OC)c3F)Cc3cnc(-c4cn(C)nc4C)cc32)ccn1 [Example 58, 3-(2,6-difluoro-3,5-dimethoxyphenyl)-7-(1,3-dimethyl-1H-pyrazol-4-yl)-1-((2-methoxypyridin-4-yl)methyl)-3,4-dihydropyrido[4,3-d]pyrimidin-2(1H)-one]
8 | >5 | >3 | COc1cc(OC)c(F)c(N2Cc3cnc(-c4cnn(CCN5CCC(OC)C5)c4)cc3C3(CC3)C2=O)c1F (stereo not shown) [Example 161, 2′-(2,6-difluoro-3,5-dimethoxyphenyl)-6′-(1-(2-(3-methoxypyrrolidin-1-yl)ethyl)-1H-pyrazol-4-yl)-1′H-spiro[cyclopropane-1,4′-[2,7]naphthyridin]-3′(2′H)-one]
9 | >5 | >10 | COc1cc(OC)c(F)c(N2Cc3cnc(-c4cn(C)nc4C)cc3N(Cc3cc(C)no3)C2=O)c1F [Example 35, 3-(2,6-difluoro-3,5-dimethoxyphenyl)-7-(1,3-dimethyl-1H-pyrazol-4-yl)-1-((3-methylisoxazol-5-yl)methyl)-3,4-dihydropyrido[4,3-d]pyrimidin-2(1H)-one]
10 | >3 | >5 | COc1cc(OC)c(F)c(N2Cc3cnc(-c4cn(C)nc4C)cc3N(c3ccc4cn[nH]c4c3)C2=O)c1F [Example 133, 3-(2,6-difluoro-3,5-dimethoxyphenyl)-7-(1,3-dimethyl-1H-pyrazol-4-yl)-1-(1H-indazol-6-yl)-3,4-dihydropyrido[4,3-d]pyrimidin-2(1H)-one]
11 | >10 | >10 | COc1cc(OC)c(F)c(N2Cc3cnc(-c4cn(C)nc4C)cc3N(Cc3nnc(C)o3)C2=O)c1F [Example 46, 3-(2,6-difluoro-3,5-dimethoxyphenyl)-7-(1,3-dimethyl-1H-pyrazol-4-yl)-1-[(5-methyl-1,3,4-oxadiazol-2-yl)methyl]-3,4-dihydropyrido[4,3-d]pyrimidin-2(1H)-one]
12 | >5 | >10 | COc1cc(OC)c(F)c(N2Cc3cnc(-c4cn(C)nc4C)cc3N(c3cccnc3)C2=O)c1F [Example 86, 3-(2,6-difluoro-3,5-dimethoxyphenyl)-7-(1,3-dimethyl-1H-pyrazol-4-yl)-1-(pyridin-3-yl)-3,4-dihydropyrido[4,3-d]pyrimidin-2(1H)-one]
13 | >5 | >10 | COc1cc(OC)c(F)c(N2Cc3cnc(-c4cn(C)nc4C)cc3N(c3cncc(C)n3)C2=O)c1F [Example 87, 3-(2,6-difluoro-3,5-dimethoxyphenyl)-7-(1,3-dimethyl-1H-pyrazol-4-yl)-1-(6-methylpyrazin-2-yl)-3,4-dihydropyrido[4,3-d]pyrimidin-2(1H)-one]
14 | >10 | >10 | CCc1cc(CN2C(=O)N(c3c(F)c(OC)cc(OC)c3F)Cc3cnc(-c4cn(C)nc4C)cc32)no1 [Example 64, 3-(2,6-difluoro-3,5-dimethoxyphenyl)-7-(1,3-dimethyl-1H-pyrazol-4-yl)-1-((5-ethylisoxazol-3-yl)methyl)-3,4-dihydropyrido[4,3-d]pyrimidin-2(1H)-one]
15 | >10 | >5 | COc1cc(OC)c(F)c(N2Cc3cnc(-c4cn(C)nc4C)cc3N(c3cncnc3)C2=O)c1F [Example 61, 3-(2,6-difluoro-3,5-dimethoxyphenyl)-7-(1,3-dimethyl-1H-pyrazol-4-yl)-1-(pyrimidin-5-yl)-3,4-dihydropyrido[4,3-d]pyrimidin-2(1H)-one]
16 | >10 | >1 | COc1cc(OC)c(F)c(N2Cc3cnc(-c4cn(CCN5CCOCC5)nc4C)cc3C3(CC3)C2=O)c1F [Example 52, 2′-(2,6-difluoro-3,5-dimethoxyphenyl)-6′-(3-methyl-1-(2-morpholinoethyl)-1H-pyrazol-4-yl)-1′H-spiro[cyclopropane-1,4′-[2,7]naphthyridin]-3′(2′H)-one]
17 | >10 | >10 | COc1ccc(CN2C(=O)N(c3c(F)c(OC)cc(OC)c3F)Cc3cnc(-c4cn(C)nc4C)cc32)cn1 [Example 59, 3-(2,6-difluoro-3,5-dimethoxyphenyl)-7-(1,3-dimethyl-1H-pyrazol-4-yl)-1-((6-methoxypyridin-3-yl)methyl)-3,4-dihydropyrido[4,3-d]pyrimidin-2(1H)-one]
18 | >10 | >10 | COc1cc(OC)c(F)c(N2Cc3cnc(-c4ccc(C5(C#N)CCC5)nc4)cc3N(Cc3nnc(C)o3)C2=O)c1F [Example 187, 1-(5-{3-(2,6-difluoro-3,5-dimethoxyphenyl)-1-[(5-methyl-1,3,4-oxadiazol-2-yl)methyl]-2-oxo-1,2,3,4-tetrahydropyrido[4,3-d]pyrimidin-7-yl}pyridin-2-yl)cyclobutanecarbonitrile]
19 | >5 | >3 | CCN1C(=O)N(c2c(F)c(OC)cc(OC)c2F)Cc2cnc(-c3cn(CC)nc3C)cc21 [Example 168, 3-(2,6-difluoro-3,5-dimethoxyphenyl)-1-ethyl-7-(1-ethyl-3-methyl-1H-pyrazol-4-yl)-3,4-dihydropyrido[4,3-d]pyrimidin-2(1H)-one]
20 | >5 | >10 | COc1cc(OC)c(F)c(N2Cc3cnc(-c4cn(C)nc4C)cc3N(Cc3cccnn3)C2=O)c1F [Example 88, 3-(2,6-difluoro-3,5-dimethoxyphenyl)-7-(1,3-dimethyl-1H-pyrazol-4-yl)-1-(pyridazin-3-ylmethyl)-3,4-dihydropyrido[4,3-d]pyrimidin-2(1H)-one]
21 | >1 | >5 | CCCN1C(=O)N(c2c(F)c(OC)cc(OC)c2F)Cc2cnc(-c3cn(C)nc3C)cc21 [Example 30, 3-(2,6-difluoro-3,5-dimethoxyphenyl)-7-(1,3-dimethyl-1H-pyrazol-4-yl)-1-propyl-3,4-dihydropyrido[4,3-d]pyrimidin-2(1H)-one]
22 | >5 | >5 | COc1cc(OC)c(F)c(N2Cc3cnc(-c4cnn(C5CCN(C(C)=O)C5)c4)cc3C3(CC3)C2=O)c1F (stereo not shown) [Example 150, 6′-(1-(1-acetylpyrrolidin-3-yl)-1H-pyrazol-4-yl)-2′-(2,6-difluoro-3,5-dimethoxyphenyl)-1′H-spiro[cyclopropane-1,4′-[2,7]naphthyridin]-3′(2′H)-one]
23 | >5 | >10 | CCc1nnc(CN2C(=O)N(c3c(F)c(OC)cc(OC)c3F)Cc3cnc(-c4cn(C)nc4C)cc32)o1 [Example 67, 3-(2,6-difluoro-3,5-dimethoxyphenyl)-7-(1,3-dimethyl-1H-pyrazol-4-yl)-1-((5-ethyl-1,3,4-oxadiazol-2-yl)methyl)-3,4-dihydropyrido[4,3-d]pyrimidin-2(1H)-one]

Row | SMILES | FGFR1/FGFR3 | FGFR4/FGFR3
24 | COc1cc(OC)c(F)c(N2Cc3cnc(-c4cn(C)nc4C)cc3N(C3CCN(C(C)=O)CC3)C2=O)c1F [Example 43, 1-(1-acetylpiperidin-4-yl)-3-(2,6-difluoro-3,5-dimethoxyphenyl)-7-(1,3-dimethyl-1H-pyrazol-4-yl)-3,4-dihydropyrido[4,3-d]pyrimidin-2(1H)-one] | >10 | >5
25 | COc1cc(OC)c(F)c(N2Cc3cnc(-c4cn(C)nc4C)cc3N(C3CCN(S(C)(=O)=O)CC3)C2=O)c1F [Example 71, 3-(2,6-difluoro-3,5-dimethoxyphenyl)-7-(1,3-dimethyl-1H-pyrazol-4-yl)-1-(1-(methylsulfonyl)piperidin-4-yl)-3,4-dihydropyrido[4,3-d]pyrimidin-2(1H)-one] | >5 | >3
